Measurements as given in patent US20240148762A1, “TOPICAL COMPOSITION CONTAINING CANNABINOIDS” (TF Holdings LLC, priority 2022, published 2024).

Test: MTT assay of viability and metabolic activity of ex vivo human skin explants after topical application
Format: cell-based
Settings: ex vivo human skin explants (5 mm); ex vivo human skin 5 mm explants, 48 hours post treatment, 37° C., compared to the untreated skin control, n=3
Experimental: Sample 1 was tested to determine its toxicity and metabolic properties in comparison to a control and three commercial cleaning agents (irritants)— “SDS” (sodium dodecyl sulfate), Triton™ X-100, and Tween® 20. Human skin was obtained via post-surgical elective surgery under IRB protocol and prepared within 2 hours of surgery as 5 mm explants. The compositions were applied to the surface of the epidermis and incubated for 24 hours and 48 hours at 37° C. At each time point, explants were assessed for viability and metabolic activity via a MTT assay (n=3; mean+/−SEM), a colorimetric assay for assessing cell metabolic activity. […] The metabolic activity (viability) of tissues treated with Sample 1 remained above 50% at 48 hours post treatment compared to the untreated skin control, while those treated with Trition ° X-100 and SDS were <10% and are illustrated in the graph below that plots percent viability and time.

For CCCCCCCCCCCCOS(=O)(=O)[O-].[Na+] [SDS, sodium dodecyl sulfate], the viability at 48 h was less than 10%.
